In the NIST ThermoML archive (doi:10.1021/acs.jced.7b00039):

Test: wn = mass fraction of the nth substance listed
Details: 100 kPa, Liquid; for viscosity: Cone and plate viscometry; for mass density: Vibrating tube method

CC(CC(C)(C)C)CP(=O)([O-])CC(C)CC(C)(C)C.CCCCCCCCCCCCCC[P+](CCCCCC)(CCCCCC)CCCCCC + CCCC(=O)O
Details	mass density, 298 K [kg/m3]	mass density, 310 K [kg/m3]	mass density, 318 K [kg/m3]	viscosity, 298 K [mPa·s]	viscosity, 310 K [mPa·s]	viscosity, 318 K [mPa·s]
w2 = 0	884.09	876.93	872.2	1023	521	345
w2 = 0.0122	886.44	879.26	874.5	952	465	304
w2 = 0.0346	892.23	884.71	879.8	785	389	257
w2 = 0.0349	889.81	882.5	877.64	787	388	255
w2 = 0.0684	893.84	886.39	881.5	562	278	185
w2 = 0.14	899.77	892.33	887.48	348	181	123
w2 = 0.242	909.13	901.49	896.4	216	118	82.2
w2 = 0.301	914.05	906.22	901	159	87.9	62.1
w2 = 0.375	919.8	911.62	906.17	92.7	53.5	38.9
w2 = 0.44	924.13	915.64	909.99	56.9	34.4	25.5
w2 = 0.491	927.26	918.52	912.71	38.8	24.6	18.8
w2 = 0.715	939.25	929.27	922.63	7.55	5.51	4.56
w2 = 0.991	953.5	941.63	933.77	1.69	1.39	1.23
